± gives the standard deviation of the averaged measurements.
Tests used:
Assay in all cases: relative viability vs DMSO control (72 h) (fraction); higher = more viable cells
A204 = test system: A204
Procedure, shortened: (§1)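 Percent growth from ATPLite readings, averaged over up to triplicate wells, was used as relative viability. Sarcoma cell lines were seeded into 384-well plates for 80–90% confluence, dosed after 24 h, and kept 72 h at 37 °C, 5% CO2. Data were rescaled to a range where 1 is full and 0 is none.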

G401 = test system: G401
Procedure, shortened: as §1

HS729 = test system: HS729
Procedure, shortened: as §1

HT1080 = test system: HT1080
Procedure, shortened: as §1

KHOS-NP = test system: KHOS-NP
Procedure, shortened: as §1

MES-SA = test system: MES-SA
Procedure, shortened: as §1

SK-LMS-1 = test system: SK-LMS-1
Procedure, shortened: as §1

SW1353 = test system: SW1353
Procedure, shortened: as §1

SW684 = test system: SW684
Procedure, shortened: as §1

SW872 = test system: SW872
Procedure, shortened: as §1

SYO-1 = test system: SYO-1
Procedure, shortened: as §1

VA-ES-BJ = test system: VA-ES-BJ
Procedure, shortened: as §1

N#CC1(c2ccc(NC(=O)c3cccnc3NCc3ccncc3)cc2)CCCC1 [Apatinib]
relative viability (A204; 0.00017 µM): 1.03 ± 0.054
relative viability (A204; 0.00051 µM): 1.03 ± 0.025
relative viability (A204; 0.00152 µM): 1.05 ± 0.039
relative viability (A204; 0.00457 µM): 1.07 ± 0.021
relative viability (A204; 0.01372 µM): 1.02 ± 0.016
relative viability (A204; 0.04115 µM): 1.01 ± 0.036
relative viability (A204; 0.1235 µM): 0.992 ± 0.019
relative viability (A204; 0.3704 µM): 0.811 ± 0.069
relative viability (A204; 1.111 µM): 0.482 ± 0.054
relative viability (A204; 3.333 µM): 0.362 ± 0.009
relative viability (A204; 10 µM): 0.342 ± 0.012
relative viability (G401; 0.00017 µM): 1.006 ± 0.0048
relative viability (G401; 0.00051 µM): 1 ± 0.05
relative viability (G401; 0.00152 µM): 0.995 ± 0.034
relative viability (G401; 0.00457 µM): 0.979 ± 0.013
relative viability (G401; 0.01372 µM): 1.01 ± 0.038
relative viability (G401; 0.04115 µM): 0.995 ± 0.048
relative viability (G401; 0.1235 µM): 0.955 ± 0.026
relative viability (G401; 0.3704 µM): 0.927 ± 0.034
relative viability (G401; 1.111 µM): 0.901 ± 0.037
relative viability (G401; 3.333 µM): 0.895 ± 0.033
relative viability (G401; 10 µM): 0.7567 ± 0.0054
relative viability (HS729; 0.00017 µM): 1.06 ± 0.024
relative viability (HS729; 0.00051 µM): 1.0262 ± 0.00061
relative viability (HS729; 0.00152 µM): 1.066 ± 0.0066
relative viability (HS729; 0.00457 µM): 1.04 ± 0.019
relative viability (HS729; 0.01372 µM): 0.997 ± 0.051
relative viability (HS729; 0.04115 µM): 1.03 ± 0.028
relative viability (HS729; 0.1235 µM): 1.04 ± 0.028
relative viability (HS729; 0.3704 µM): 0.963 ± 0.043
relative viability (HS729; 1.111 µM): 0.906 ± 0.042
relative viability (HS729; 3.333 µM): 0.865 ± 0.033
relative viability (HS729; 10 µM): 0.745 ± 0.013
relative viability (HT1080; 0.00017 µM): 1.02 ± 0.026
relative viability (HT1080; 0.00051 µM): 1.05 ± 0.013
relative viability (HT1080; 0.00152 µM): 1.05 ± 0.02
relative viability (HT1080; 0.00457 µM): 1.081 ± 0.0097
relative viability (HT1080; 0.01372 µM): 1.07 ± 0.022
relative viability (HT1080; 0.04115 µM): 1.05 ± 0.026
relative viability (HT1080; 0.1235 µM): 1.069 ± 0.0035
relative viability (HT1080; 0.3704 µM): 1.04 ± 0.027
relative viability (HT1080; 1.111 µM): 1.03 ± 0.03
relative viability (HT1080; 3.333 µM): 1.04 ± 0.014
relative viability (HT1080; 10 µM): 0.9829 ± 0.0037
relative viability (KHOS-NP; 0.00017 µM): 1.03 ± 0.021
relative viability (KHOS-NP; 0.00051 µM): 1.04 ± 0.018
relative viability (KHOS-NP; 0.00152 µM): 1.05 ± 0.015
relative viability (KHOS-NP; 0.00457 µM): 1.05 ± 0.025
relative viability (KHOS-NP; 0.01372 µM): 1.06 ± 0.017
relative viability (KHOS-NP; 0.04115 µM): 1.08 ± 0.012
relative viability (KHOS-NP; 0.1235 µM): 1.04 ± 0.042
relative viability (KHOS-NP; 0.3704 µM): 1.027 ± 0.0073
relative viability (KHOS-NP; 1.111 µM): 1 ± 0.02
relative viability (KHOS-NP; 3.333 µM): 0.918 ± 0.036
relative viability (KHOS-NP; 10 µM): 0.726 ± 0.014
relative viability (MES-SA; 0.00017 µM): 0.978 ± 0.04
relative viability (MES-SA; 0.00051 µM): 0.958 ± 0.027
relative viability (MES-SA; 0.00152 µM): 0.946 ± 0.022
relative viability (MES-SA; 0.00457 µM): 0.9268 ± 0.0057
relative viability (MES-SA; 0.01372 µM): 0.929 ± 0.025
relative viability (MES-SA; 0.04115 µM): 0.939 ± 0.041
relative viability (MES-SA; 0.1235 µM): 0.928 ± 0.03
relative viability (MES-SA; 0.3704 µM): 0.938 ± 0.023
relative viability (MES-SA; 1.111 µM): 0.885 ± 0.028
relative viability (MES-SA; 3.333 µM): 0.875 ± 0.029
relative viability (MES-SA; 10 µM): 0.773 ± 0.022
relative viability (SK-LMS-1; 0.00017 µM): 1.06 ± 0.017
relative viability (SK-LMS-1; 0.00051 µM): 1.06 ± 0.024
relative viability (SK-LMS-1; 0.00152 µM): 1.07 ± 0.032
relative viability (SK-LMS-1; 0.00457 µM): 1.05 ± 0.032
relative viability (SK-LMS-1; 0.01372 µM): 1.07 ± 0.042
relative viability (SK-LMS-1; 0.04115 µM): 1.08 ± 0.044
relative viability (SK-LMS-1; 0.1235 µM): 1.01 ± 0.027
relative viability (SK-LMS-1; 0.3704 µM): 1.05 ± 0.014
relative viability (SK-LMS-1; 1.111 µM): 1.02 ± 0.022
relative viability (SK-LMS-1; 3.333 µM): 1 ± 0.041
relative viability (SK-LMS-1; 10 µM): 0.833 ± 0.043
relative viability (SW1353; 0.00017 µM): 1.03 ± 0.04
relative viability (SW1353; 0.00051 µM): 1.005 ± 0.002
relative viability (SW1353; 0.00152 µM): 0.988 ± 0.037
relative viability (SW1353; 0.00457 µM): 1.01 ± 0.026
relative viability (SW1353; 0.01372 µM): 0.9811 ± 0.0096
relative viability (SW1353; 0.04115 µM): 0.992 ± 0.023
relative viability (SW1353; 0.1235 µM): 0.981 ± 0.037
relative viability (SW1353; 0.3704 µM): 0.948 ± 0.024
relative viability (SW1353; 1.111 µM): 0.935 ± 0.036
relative viability (SW1353; 3.333 µM): 0.994 ± 0.056
relative viability (SW1353; 10 µM): 0.928 ± 0.025
relative viability (SW684; 0.00017 µM): 1.04 ± 0.074
relative viability (SW684; 0.00051 µM): 1.1 ± 0.075
relative viability (SW684; 0.00152 µM): 1.06 ± 0.022
relative viability (SW684; 0.00457 µM): 1.08 ± 0.038
relative viability (SW684; 0.01372 µM): 1.09 ± 0.013
relative viability (SW684; 0.04115 µM): 1.09 ± 0.049
relative viability (SW684; 0.1235 µM): 1.1 ± 0.028
relative viability (SW684; 0.3704 µM): 1.05 ± 0.049
relative viability (SW684; 1.111 µM): 1.07 ± 0.027
relative viability (SW684; 3.333 µM): 1.05 ± 0.074
relative viability (SW684; 10 µM): 1.02 ± 0.062
relative viability (SW872; 0.00017 µM): 1.06 ± 0.047
relative viability (SW872; 0.00051 µM): 1.07 ± 0.032
relative viability (SW872; 0.00152 µM): 1.05 ± 0.015
relative viability (SW872; 0.00457 µM): 1.05 ± 0.028
relative viability (SW872; 0.01372 µM): 1.08 ± 0.061
relative viability (SW872; 0.04115 µM): 1.08 ± 0.011
relative viability (SW872; 0.1235 µM): 1.05 ± 0.052
relative viability (SW872; 0.3704 µM): 1.02 ± 0.042
relative viability (SW872; 1.111 µM): 1.02 ± 0.048
relative viability (SW872; 3.333 µM): 1.03 ± 0.08
relative viability (SW872; 10 µM): 0.972 ± 0.015
relative viability (SYO-1; 0.00017 µM): 1.01 ± 0.012
relative viability (SYO-1; 0.00051 µM): 1.03 ± 0.013
relative viability (SYO-1; 0.00152 µM): 1.01 ± 0.039
relative viability (SYO-1; 0.00457 µM): 1.02 ± 0.045
relative viability (SYO-1; 0.01372 µM): 1.01 ± 0.049
relative viability (SYO-1; 0.04115 µM): 1.02 ± 0.051
relative viability (SYO-1; 0.1235 µM): 0.957 ± 0.069
relative viability (SYO-1; 0.3704 µM): 0.91 ± 0.047
relative viability (SYO-1; 1.111 µM): 0.747 ± 0.036
relative viability (SYO-1; 3.333 µM): 0.678 ± 0.027
relative viability (SYO-1; 10 µM): 0.552 ± 0.009
relative viability (VA-ES-BJ; 0.00017 µM): 1.04 ± 0.022
relative viability (VA-ES-BJ; 0.00051 µM): 1.08 ± 0.053
relative viability (VA-ES-BJ; 0.00152 µM): 1.05 ± 0.022
relative viability (VA-ES-BJ; 0.00457 µM): 1.08 ± 0.02
relative viability (VA-ES-BJ; 0.01372 µM): 1.06 ± 0.037
relative viability (VA-ES-BJ; 0.04115 µM): 1.07 ± 0.041
relative viability (VA-ES-BJ; 0.1235 µM): 1.067 ± 0.0077
relative viability (VA-ES-BJ; 0.3704 µM): 1.07 ± 0.03
relative viability (VA-ES-BJ; 1.111 µM): 1.11 ± 0.053
relative viability (VA-ES-BJ; 3.333 µM): 1.14 ± 0.06
relative viability (VA-ES-BJ; 10 µM): 1.17 ± 0.064

— the supplement of paper PMC10883282
